Reference: patent publication US10888549B2, “Pharmaceutical agents targeting cancer stem cells” (THE JOHNS HOPKINS UNIVERSITY, priority 2016, dated 2021)

Tests used:
[1] = system: SOX2; experiment: SOX2 expression by western blotting / flow cytometry; assay type: cell-based, human
Description: (§1) Whole cell lysates were extracted using RIPA buffer (Thermo Scientific) supplemented with 10 μL/mL Halt™ Protease Inhibitor Cocktail Kit (Life Technologies) and 30 μL/mL Halt™ Phosphatase Inhibitor Cocktail Kit (Life Technologies). The protein concentrations were determined using a Pierce™ BCA Protein Assay Kit (Life Technologies), and the protein were separated on NuPAGE® 4-12% Bis-Tris Gel (Life Technologies) according to the manufacturer's protocol. COX2 (D5H5), NANOG (D73G4), OCT4 (D7O5Z), CD133 (A3G6K), Snail (C15D3), ZEB1 (D80D3), Vimentin (D21H3), CDH2 (D4R1H), CDH1 (24E10), p-EGFR (D7A5), EGFR (D38B1), p-AKT (D9E), AKT (cat #, 9272), p-ERK (D13.14.4E), ERK (137F5), p-YAP1 (D9W2I), p-Src (cat #, 2101), Src (36D10), DNMT1 (D63A6), DNMT3A (D23G1), and DNMT3B (D7O7O) antibodies were obtained from Cell Signaling Technology (Danvers, Mass., USA), except for SOX2 (EPR3131; Abcam, Cambridge, USA), YAP1 (ab52771; Abcam), CD24 (cat #, AF5247-SP; R&D Systems, Minneapolis USA) and β-actin (A2228; Sigma-Aldrich). Secondary horseradish peroxidase (HRP)-conjugated antibodies were obtained from Cell Signaling Technology, and chemiluminescent detection of HRP-labeled antibodies was performed using Amersham ECL Prime Western Blotting Detection Reagent (GE Healthcare, Piscataway, USA). As loading control, β-actin was used.
For extracellular staining, cells (1×10^6/100 μL stain buffer) were incubated with PE-Vio770-conjugated anti-human CD133 (293C3; Miltenyi Biotec, Auburn, USA) or PE-conjugated anti-human CD24 antibody (cat #, 560991; BD Biosciences) for 30 min at 4° C. in dark. PE-Vio770-conjugated Isotype (cat #, 130-098-563; Miltenyi Biotec) and PE-conjugated IgG2a, κ Isotype (cat #, 555574; BD Biosciences) were used as control for CD133 and CD24 staining, respectively. Staining for intracellular SOX2 was carried out using the BD Cytofix/Cytoperm Fixation/Permeabilization Kit (BD Biosciences) according to manufacturer's protocol. The cells were incubated with Alexa Fluor 647-conjugated anti-SOX2 antibody (cat #, 560302; BD Biosciences) for 40 min at 4° C. in dark. Alexa Fluor 647-conjugated anti-IgG2a, κ Isotype (cat #, 558053; BD Biosciences) was used as control. Data were acquired on a BD FACSCalibur flow cytometer (BD Biosciences) using BD CellQuest Pro software (BD Biosciences) and analyzed with FlowJo software v10.1 (Tree Star, Ashland, USA).

[2] = system: YAP1; experiment: YAP1 expression by western blotting; assay type: cell-based, human
Description: as §1

[3] = system: MIRLET7BHG promoter; experiment: Bisulfite sequencing of let-7 host gene promoter; assay type: cell-based, human; conditions: bladder cancer cells
Description: Cell pellets were digested with 1% sodium dodecyl sulfate and 50 μg/mL proteinase K (Roche, Nutley, USA) at 48° C. overnight. Isolation of genomic DNA from cell lines was performed with the phenol-chloroform extraction protocol followed by ethanol precipitation. Bisulfite treatment was conducted using an EpiTect Bisulfite Kit (QIAGEN, Valencia, USA), and was subsequently amplified via PCR using primers as shown in the following table. PCR products were purified using the QIAquick Gel Extraction kit (Qiagen), and sequenced by Genewiz DNA sequencing service (Genewiz, South Plainfield, USA). The data were analyzed using the Sequence Scanner v1.0 software (Life technologies). A methylation frequency of ≥50% of total CpG sites within the amplified region was considered “methylation-positive”. For demethylation, cells (1×10^6/T-75 flask) were treated with […] of the demethylating agent 5-Aza-dC (Sigma) dissolved in 50% acetic acid or were mock-treated with phosphate buffered saline (PBS) including the same amount of acetic acid every 24 hours for 5 days. When combined with the histone deacetylase inhibitor TSA (Sigma), 300 nmol/L TSA was added to the medium for the final 24 hours.

[4] = system: promoters of miR-126, miR-296, and miR-200c; experiment: Bisulfite sequencing of miRNA promoters; assay type: cell-based, human; conditions: spheroid cells
[5] = Body weight of treated mice; assay type: in vivo; conditions: compared with control
Description: For celecoxib and/or VP treatment, celecoxib (5 mg/kg) was administered via intraperitoneal (i.p.) injection once a day (17), and VP (50 mg/kg) was administered via i.p. every other day (18). EP4 antagonist ONO-AE3-208 (10 mg/kg) was administered via i.p. once a day (19). Control was applied with same volume (100 μL per injection) of 10% dimethyl sulphoxide in […] (Sigma-Aldrich). For GEM and CDDP (GC) treatment (i.p.), CDDP (6 mg/kg) was only applied after the first GEM (60 mg/kg) treatment on day 2, followed by three consecutive treatments of GEM on day 5, 8 and 11 (17). The next cycle was started on day 18, and the treatment was continued until tumor reached 2 cm in diameter. For erlotinib treatment, the mice were treated once a day, 6 days per week, by oral gavage with erlotinib (100 mg/kg) or control (PBS containing 0.5% methyl cellulose (Sigma-Aldrich) and 0.1% TWEEN 80) (20). Tumor size was measured at least every three days. […] To establish xenograft model with acquired resistance to erlotinib, erlotinib sensitive 5637 cells were injected subcutaneously into the both flanks of 4-5 week-old NSG mice, and the tumors were consecutively passaged from NSG mice treated with erlotinib and celecoxib until the development of refractory tumors. […]

[6] = COX2 inhibitor added to erlotinib, basal-type cells
[7] = agent alone, bladder cancer cells

Compound: Cc1ccc(-c2cc(C(F)(F)F)nn2-c2ccc(S(N)(=O)=O)cc2)cc1 [celecoxib, Celecoxib]
- SOX2 expression [1, 6]: impaired
- SOX2 expression [1, 7]: repressed
- YAP1 expression [2, 6]: no longer able to induce
- YAP1 expression [2, 7]: induced
- promoter methylation of the let-7 host gene [3]: demethylated
- promoter methylation of miRNAs (miR-126, miR-296, miR-200c) [4]: demethylated
- body weight loss of mice [5]: did not observe body weight loss
